Reference: article PMC4411097, “Pachymic Acid Inhibits Growth and Induces Apoptosis of Pancreatic Cancer In Vitro and In Vivo by Targeting ER Stress” (PLoS ONE, 2015)

Test system: MIA PaCa-2 cells
Test: DNA microarray analysis (Affymetrix Human PrimeView);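 as to Mean (MiaPaca-2 * PA): Log2-transformed RMA normalized probe set signal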
Format: cell-based
[1] = gene ATF3, probeset 11753632_x_at
[2] = gene C3orf52, probeset 11724431_at
[3] = gene C3orf59, probeset 11722936_at
[4] = gene C17orf91, probeset 11740895_a_at
[5] = gene C17orf91, probeset 11740896_s_at
[6] = gene CASP1, probeset 11750553_x_at
[7] = gene CCNE2, probeset 11728301_a_at
[8] = gene CD83, probeset 11743000_at
[9] = gene CDCP1, probeset 11732062_a_at
[10] = gene CDKN1A, probeset 11715387_at
[11] = gene CEBPG, probeset 11717693_at
[12] = gene CTGF, probeset 11715440_a_at
[13] = gene CTPS, probeset 11747890_a_at
[14] = gene CTSC, probeset 11731465_a_at
[15] = gene DDIT3, probeset 11758198_s_at
[16] = gene DNAJB1, probeset 11715445_a_at
[17] = gene DNAJB1, probeset 11715446_a_at
[18] = gene EGR1, probeset 11717862_x_at
[19] = gene EGR1, probeset 11754334_s_at
[20] = gene EGR3, probeset 11736342_at
[21] = gene EIF4A2, probeset 11760707_a_at
[22] = gene EIF4A2, probeset 11760708_at
[23] = gene FOS, probeset 11734659_a_at
[24] = gene FOSL1, probeset 11760574_x_at
[25] = gene HKDC1, probeset 11722519_at
[26] = gene HKDC1, probeset 11722521_at

## C=C(CC[C@@H](C(=O)O)[C@H]1[C@H](O)C[C@@]2(C)C3=C(CC[C@]12C)[C@@]1(C)CC[C@H](OC(C)=O)C(C)(C)[C@@H]1CC3)C(C)C [PA, Pachymic acid]
Gene AEN, probeset 11754296_a_at, MiaPaca-2
  Fold-Change (MiaPaca-2 * PA vs. MiaPaca-2 * control): 1.50
Gene AEN, probeset 11754296_a_at, MiaPaca-2, PA-treated
  Mean (MiaPaca-2 * PA): 8.26
[1]
  Fold-Change (MiaPaca-2 * PA vs. MiaPaca-2 * control): 1.60
  Mean (MiaPaca-2 * PA): 5.51
[2]
  Fold-Change (MiaPaca-2 * PA vs. MiaPaca-2 * control): 1.60
  Mean (MiaPaca-2 * PA): 7.34
[3]
  Fold-Change (MiaPaca-2 * PA vs. MiaPaca-2 * control): 1.55
  Mean (MiaPaca-2 * PA): 8.02
Gene C6orf145, probeset 11754483_a_at, MiaPaca-2
  Fold-Change (MiaPaca-2 * PA vs. MiaPaca-2 * control): 1.51
Gene C6orf145, probeset 11754483_a_at, MiaPaca-2, PA-treated
  Mean (MiaPaca-2 * PA): 7.32
[4]
  Fold-Change (MiaPaca-2 * PA vs. MiaPaca-2 * control): 1.61
  Mean (MiaPaca-2 * PA): 7.42
[5]
  Fold-Change (MiaPaca-2 * PA vs. MiaPaca-2 * control): 1.67
  Mean (MiaPaca-2 * PA): 7.56
Gene CAMTA1, probeset 11723154_s_at, MiaPaca-2
  Fold-Change (MiaPaca-2 * PA vs. MiaPaca-2 * control): 1.52
Gene CAMTA1, probeset 11723154_s_at, MiaPaca-2, PA-treated
  Mean (MiaPaca-2 * PA): 6.50
Gene CAPRIN2, probeset 11749098_a_at, MiaPaca-2
  Fold-Change (MiaPaca-2 * PA vs. MiaPaca-2 * control): 1.50
Gene CAPRIN2, probeset 11749098_a_at, MiaPaca-2, PA-treated
  Mean (MiaPaca-2 * PA): 8.43
Gene CASP1, probeset 11738884_x_at, MiaPaca-2
  Fold-Change (MiaPaca-2 * PA vs. MiaPaca-2 * control): 1.53
Gene CASP1, probeset 11738884_x_at, MiaPaca-2, PA-treated
  Mean (MiaPaca-2 * PA): 7.07
[6]
  Fold-Change (MiaPaca-2 * PA vs. MiaPaca-2 * control): 1.55
  Mean (MiaPaca-2 * PA): 7.39
[7]
  Fold-Change (MiaPaca-2 * PA vs. MiaPaca-2 * control): 1.56
  Mean (MiaPaca-2 * PA): 6.40
[8]
  Fold-Change (MiaPaca-2 * PA vs. MiaPaca-2 * control): 1.58
  Mean (MiaPaca-2 * PA): 7.70
Gene CDC25A, probeset 11726757_s_at, MiaPaca-2
  Fold-Change (MiaPaca-2 * PA vs. MiaPaca-2 * control): 1.51
Gene CDC25A, probeset 11726757_s_at, MiaPaca-2, PA-treated
  Mean (MiaPaca-2 * PA): 7.92
[9]
  Fold-Change (MiaPaca-2 * PA vs. MiaPaca-2 * control): 1.58
  Mean (MiaPaca-2 * PA): 6.86
[10]
  Fold-Change (MiaPaca-2 * PA vs. MiaPaca-2 * control): 1.56
  Mean (MiaPaca-2 * PA): 6.94
[11]
  Fold-Change (MiaPaca-2 * PA vs. MiaPaca-2 * control): 1.57
  Mean (MiaPaca-2 * PA): 9.81
Gene CEBPG, probeset 11717694_a_at, MiaPaca-2
  Fold-Change (MiaPaca-2 * PA vs. MiaPaca-2 * control): 1.51
Gene CEBPG, probeset 11717694_a_at, MiaPaca-2, PA-treated
  Mean (MiaPaca-2 * PA): 8.37
Gene CIDEB, probeset 11752838_s_at, MiaPaca-2
  Fold-Change (MiaPaca-2 * PA vs. MiaPaca-2 * control): 1.52
Gene CIDEB, probeset 11752838_s_at, MiaPaca-2, PA-treated
  Mean (MiaPaca-2 * PA): 5.52
[12]
  Fold-Change (MiaPaca-2 * PA vs. MiaPaca-2 * control): 1.65
  Mean (MiaPaca-2 * PA): 5.48
[13]
  Fold-Change (MiaPaca-2 * PA vs. MiaPaca-2 * control): 1.56
  Mean (MiaPaca-2 * PA): 7.43
[14]
  Fold-Change (MiaPaca-2 * PA vs. MiaPaca-2 * control): 1.61
  Mean (MiaPaca-2 * PA): 7.37
[15]
  Fold-Change (MiaPaca-2 * PA vs. MiaPaca-2 * control): 1.54
  Mean (MiaPaca-2 * PA): 6.68
[16]
  Fold-Change (MiaPaca-2 * PA vs. MiaPaca-2 * control): 1.59
  Mean (MiaPaca-2 * PA): 10.46
[17]
  Fold-Change (MiaPaca-2 * PA vs. MiaPaca-2 * control): 1.56
  Mean (MiaPaca-2 * PA): 11.54
Gene DUSP2, probeset 11721695_s_at, MiaPaca-2
  Fold-Change (MiaPaca-2 * PA vs. MiaPaca-2 * control): 1.51
Gene DUSP2, probeset 11721695_s_at, MiaPaca-2, PA-treated
  Mean (MiaPaca-2 * PA): 7.47
Gene DUSP5, probeset 11717863_a_at, MiaPaca-2
  Fold-Change (MiaPaca-2 * PA vs. MiaPaca-2 * control): 1.52
Gene DUSP5, probeset 11717863_a_at, MiaPaca-2, PA-treated
  Mean (MiaPaca-2 * PA): 7.89
Gene DUSP6, probeset 11741980_a_at, MiaPaca-2
  Fold-Change (MiaPaca-2 * PA vs. MiaPaca-2 * control): 1.53
Gene DUSP6, probeset 11741980_a_at, MiaPaca-2, PA-treated
  Mean (MiaPaca-2 * PA): 10.54
[18]
  Fold-Change (MiaPaca-2 * PA vs. MiaPaca-2 * control): 1.65
  Mean (MiaPaca-2 * PA): 7.37
[19]
  Fold-Change (MiaPaca-2 * PA vs. MiaPaca-2 * control): 1.60
  Mean (MiaPaca-2 * PA): 10.76
[20]
  Fold-Change (MiaPaca-2 * PA vs. MiaPaca-2 * control): 1.55
  Mean (MiaPaca-2 * PA): 6.51
[21]
  Fold-Change (MiaPaca-2 * PA vs. MiaPaca-2 * control): 1.61
  Mean (MiaPaca-2 * PA): 10.11
[22]
  Fold-Change (MiaPaca-2 * PA vs. MiaPaca-2 * control): 1.66
  Mean (MiaPaca-2 * PA): 7.82
Gene EIF4A2 /// SNORA4, probeset 11757137_s_at, MiaPaca-2
  Fold-Change (MiaPaca-2 * PA vs. MiaPaca-2 * control): 1.51
Gene EIF4A2 /// SNORA4, probeset 11757137_s_at, MiaPaca-2, PA-treated
  Mean (MiaPaca-2 * PA): 5.63
Gene EREG, probeset 11763822_at, MiaPaca-2
  Fold-Change (MiaPaca-2 * PA vs. MiaPaca-2 * control): 1.52
Gene EREG, probeset 11763822_at, MiaPaca-2, PA-treated
  Mean (MiaPaca-2 * PA): 6.66
Gene FLJ36031, probeset 11739442_s_at, MiaPaca-2
  Fold-Change (MiaPaca-2 * PA vs. MiaPaca-2 * control): 1.53
Gene FLJ36031, probeset 11739442_s_at, MiaPaca-2, PA-treated
  Mean (MiaPaca-2 * PA): 8.29
[23]
  Fold-Change (MiaPaca-2 * PA vs. MiaPaca-2 * control): 1.61
  Mean (MiaPaca-2 * PA): 7.33
Gene FOSL1, probeset 11724479_x_at, MiaPaca-2
  Fold-Change (MiaPaca-2 * PA vs. MiaPaca-2 * control): 1.52
Gene FOSL1, probeset 11724479_x_at, MiaPaca-2, PA-treated
  Mean (MiaPaca-2 * PA): 6.50
[24]
  Fold-Change (MiaPaca-2 * PA vs. MiaPaca-2 * control): 1.56
  Mean (MiaPaca-2 * PA): 8.39
Gene GBP1, probeset 11726328_x_at, MiaPaca-2
  Fold-Change (MiaPaca-2 * PA vs. MiaPaca-2 * control): 1.50
Gene GBP1, probeset 11726328_x_at, MiaPaca-2, PA-treated
  Mean (MiaPaca-2 * PA): 5.03
Gene HERPUD1, probeset 11741510_a_at, MiaPaca-2
  Fold-Change (MiaPaca-2 * PA vs. MiaPaca-2 * control): 1.50
Gene HERPUD1, probeset 11741510_a_at, MiaPaca-2, PA-treated
  Mean (MiaPaca-2 * PA): 9.22
[25]
  Fold-Change (MiaPaca-2 * PA vs. MiaPaca-2 * control): 1.60
  Mean (MiaPaca-2 * PA): 8.79
[26]
  Fold-Change (MiaPaca-2 * PA vs. MiaPaca-2 * control): 1.59
  Mean (MiaPaca-2 * PA): 6.86
Gene HMOX1, probeset 11753446_x_at, MiaPaca-2
  Fold-Change (MiaPaca-2 * PA vs. MiaPaca-2 * control): 1.50
Gene HMOX1, probeset 11753446_x_at, MiaPaca-2, PA-treated
  Mean (MiaPaca-2 * PA): 6.67
